In ChEMBL document CHEMBL5518215, “Unlocking Antibacterial Potential: Key-Site-Based Regulation of Antibacterial Spectrum of Peptides” (J Med Chem, 2024):

Columns and labels:
Escherichia coli [1] = experiment: Antimicrobial activity against Escherichia coli 25922 assessed as bacterial killing measured after 16 hrs incubation; assay type: functional
Enterococcus faecalis [2] = experiment: Antimicrobial activity against Enterococcus faecalis 29212 assessed as bacterial killing measured after 16 hrs incubation; assay type: functional
Bacillus cereus [3] = experiment: Antimicrobial activity against Bacillus cereus 1.932 assessed as bacterial killing measured after 16 hrs incubation; assay type: functional
Erythrocyte = experiment: Hemolytic activity in human RBC at effective concentration measured after 1 hr by microplate reader analysis; assay type: toxicity, cell-based
Bacillus cereus [4] = experiment: Antimicrobial activity against Bacillus cereus 1.932 assessed as absence bacterial growth measured after 18 to 24 hrs incubation by NCCLS method; assay type: functional; conditions: time 18-24 hrs
Salmonella typhimurium [5] = experiment: Antimicrobial activity against Salmonella typhimurium 14028 assessed as absence bacterial growth measured after 18 to 24 hrs incubation by NCCLS method; assay type: functional, Salmonella enterica subsp. enterica serovar Typhimurium; conditions: Salmonella enterica, time 18-24 hrs
[6] = Antimicrobial activity against Salmonella pullorum C7913 assessed as absence bacterial growth measured after 18 to 24 hrs incubation by NCCLS method; assay type: functional, Salmonella enterica subsp. enterica serovar Pullorum; conditions: Salmonella enterica, time 18-24 hrs
Escherichia coli [7] = experiment: Antimicrobial activity against Escherichia coli 25922 assessed as absence bacterial growth measured after 18 to 24 hrs incubation in presence of NaCl by NCCLS method; assay type: functional; conditions: time 18-24 hrs
[8] = Antimicrobial activity against Salmonella pullorum C7913 assessed as bacterial killing measured after 16 hrs incubation; assay type: functional, Salmonella enterica subsp. enterica serovar Pullorum; conditions: Salmonella enterica
Staphylococcus aureus [9] = experiment: Antimicrobial activity against Methicillin-resistant Staphylococcus aureus 43300 assessed as bacterial killing measured after 16 hrs incubation; assay type: functional
[10] = Cytotoxicity against human HEK-293T cells assessed as cell survival rate measured after 8 hrs by MTT assay; assay type: toxicity, cell-based
Escherichia coli [11] = experiment: Antimicrobial activity against Escherichia coli 25922 assessed as absence bacterial growth measured after 18 to 24 hrs incubation in presence of 50% serum by NCCLS method; assay type: functional; conditions: time 18-24 hrs
[12] = tested on: Staphylococcus epidermidis; experiment: Antimicrobial activity against Staphylococcus epidermidis 12228 assessed as absence bacterial growth measured after 18 to 24 hrs incubation by NCCLS method; assay type: functional; conditions: time 18-24 hrs
Listeria monocytogenes [13] = experiment: Antimicrobial activity against Listeria monocytogenes 1.10753 assessed as absence bacterial growth measured after 18 to 24 hrs incubation by NCCLS method; assay type: functional; conditions: time 18-24 hrs
Escherichia coli [14] = experiment: Antimicrobial activity against Escherichia coli K88 assessed as absence bacterial growth measured after 18 to 24 hrs incubation by NCCLS method; assay type: functional; conditions: time 18-24 hrs
Staphylococcus aureus [15] = experiment: Antimicrobial activity against Staphylococcus aureus 29213 assessed as bacterial killing measured after 16 hrs incubation; assay type: functional
Escherichia coli [16] = experiment: Antimicrobial activity against Escherichia coli 25922 assessed as absence bacterial growth measured after 18 to 24 hrs incubation in presence of FeCl3 by NCCLS method; assay type: functional; conditions: time 18-24 hrs
Escherichia coli [17] = experiment: Antimicrobial activity against Escherichia coli K88 assessed as bacterial killing measured after 16 hrs incubation; assay type: functional
[18] = Cytotoxicity against porcine IPEC-J2 cells assessed as cell survival rate measured after 8 hrs by MTT assay; assay type: toxicity, cell-based, Sus scrofa; conditions: pig
Pseudomonas aeruginosa [19] = experiment: Antimicrobial activity against Pseudomonas aeruginosa 27853 assessed as bacterial killing measured after 16 hrs incubation; assay type: functional
Staphylococcus aureus [20] = experiment: Antimicrobial activity against Staphylococcus aureus 29213 assessed as absence bacterial growth measured after 18 to 24 hrs incubation by NCCLS method; assay type: functional; conditions: time 18-24 hrs
Enterococcus faecalis [21] = experiment: Antimicrobial activity against Enterococcus faecalis 29212 assessed as absence bacterial growth measured after 18 to 24 hrs incubation by NCCLS method; assay type: functional; conditions: time 18-24 hrs
Escherichia coli [22] = experiment: Antimicrobial activity against Escherichia coli 25922 assessed as absence bacterial growth measured after 18 to 24 hrs incubation by NCCLS method; assay type: functional; conditions: time 18-24 hrs
Escherichia coli [23] = experiment: Antimicrobial activity against Escherichia coli 25922 assessed as absence bacterial growth measured after 18 to 24 hrs incubation in presence of NH4Cl by NCCLS method; assay type: functional; conditions: time 18-24 hrs
Acinetobacter baumannii [24] = experiment: Antimicrobial activity against Acinetobacter baumannii 1.6769 assessed as bacterial killing measured after 16 hrs incubation; assay type: functional
Staphylococcus aureus [25] = experiment: Antimicrobial activity against Staphylococcus aureus 25923 assessed as bacterial killing measured after 16 hrs incubation; assay type: functional
Escherichia coli [26] = experiment: Antimicrobial activity against Escherichia coli 25922 assessed as absence bacterial growth measured after 18 to 24 hrs incubation in presence of 25% serum by NCCLS method; assay type: functional; conditions: time 18-24 hrs
Staphylococcus aureus [27] = experiment: Antimicrobial activity against Methicillin-resistant Staphylococcus aureus 43300 assessed as absence bacterial growth measured after 18 to 24 hrs incubation by NCCLS method; assay type: functional; conditions: time 18-24 hrs
Salmonella typhimurium [28] = experiment: Antimicrobial activity against Salmonella typhimurium 14028 assessed as bacterial killing measured after 16 hrs incubation; assay type: functional, Salmonella enterica subsp. enterica serovar Typhimurium; conditions: Salmonella enterica
Escherichia coli [29] = experiment: Antimicrobial activity against Escherichia coli 25922 assessed as absence bacterial growth measured after 18 to 24 hrs incubation in presence of KCl by NCCLS method; assay type: functional; conditions: time 18-24 hrs
Salmonella typhimurium [30] = experiment: Antimicrobial activity against Salmonella typhimurium C7731 assessed as bacterial killing measured after 16 hrs incubation; assay type: functional, Salmonella enterica subsp. enterica serovar Typhimurium; conditions: Salmonella enterica
Pseudomonas aeruginosa [31] = experiment: Antimicrobial activity against Pseudomonas aeruginosa 27853 assessed as absence bacterial growth measured after 18 to 24 hrs incubation by NCCLS method; assay type: functional; conditions: time 18-24 hrs
Acinetobacter baumannii [32] = experiment: Antimicrobial activity against Acinetobacter baumannii 1.6769 assessed as absence bacterial growth measured after 18 to 24 hrs incubation by NCCLS method; assay type: functional; conditions: time 18-24 hrs
Escherichia coli [33] = experiment: Antimicrobial activity against Escherichia coli 25922 assessed as absence bacterial growth measured after 18 to 24 hrs incubation in presence of ZnCl2 by NCCLS method; assay type: functional; conditions: time 18-24 hrs
Escherichia coli [34] = experiment: Antimicrobial activity against Escherichia coli 25922 assessed as absence bacterial growth measured after 18 to 24 hrs incubation in presence of 12.5% serum by NCCLS method; assay type: functional; conditions: time 18-24 hrs
Listeria monocytogenes [35] = experiment: Antimicrobial activity against Listeria monocytogenes 1.10753 assessed as bacterial killing measured after 16 hrs incubation; assay type: functional
Escherichia coli [36] = experiment: Antimicrobial activity against Escherichia coli 25922 assessed as absence bacterial growth measured after 18 to 24 hrs incubation in presence of MgCl2 by NCCLS method; assay type: functional; conditions: time 18-24 hrs
[37] = Hemolytic activity in human RBC at effective concentration at 128 uM measured after 1 hr by microplate reader relative to control; assay type: toxicity, cell-based, Erythrocyte; conditions: human red blood cells (erythrocytes), read-out: Activity
[38] = Cytotoxicity against mouse RAW264.7 cells assessed as cell survival rate measured after 8 hrs by MTT assay; assay type: toxicity, cell-based
Salmonella typhimurium [39] = experiment: Antimicrobial activity against Salmonella typhimurium C7731 assessed as absence bacterial growth measured after 18 to 24 hrs incubation by NCCLS method; assay type: functional, Salmonella enterica subsp. enterica serovar Typhimurium; conditions: Salmonella enterica, time 18-24 hrs
Staphylococcus aureus [40] = experiment: Antimicrobial activity against Staphylococcus aureus 29213 assessed as absence bacterial growth measured after 18 to 24 hrs incubation by NCCLS m; assay type: functional; conditions: time 18-24 hrs
[41] = tested on: Staphylococcus epidermidis; experiment: Antimicrobial activity against Staphylococcus epidermidis 12228 assessed as bacterial killing measured after 16 hrs incubation; assay type: functional

H-VKLWLKGGKLWLKGGKLWLKG-NH2 gave an MBC (Escherichia coli [1]) of 16 µM, an MBC (Enterococcus faecalis [2]) of over 32 µM and an MBC (Bacillus cereus [3]) of over 32 µM. It also gave an HC10 (Erythrocyte) of over 128 µM, an MIC (Bacillus cereus [4]) of over 32 µM and an MIC (Salmonella typhimurium [5]) of 8 µM. It also gave an MIC [6] of 2 µM, an MIC (Escherichia coli [7]) of over 32 µM and an MBC [8] of 4 µM. For the same substance, the MBC (Staphylococcus aureus [9]) was over 32 µM, the IC50 at 8 h [10] was over 64 µM and the MIC (Escherichia coli [11]) was over 32 µM. It also gave an MIC [12] of over 32 µM, an MIC (Listeria monocytogenes [13]) of over 32 µM and an MIC (Escherichia coli [14]) of 1 µM. The MBC (Staphylococcus aureus [15]) was over 32 µM, the MIC (Escherichia coli [16]) was 4 µM and the MBC (Escherichia coli [17]) was 1 µM. For the same substance, the IC50 at 8 h [18] was 60.2 µM, the MBC (Pseudomonas aeruginosa [19]) was over 32 µM and the MIC (Staphylococcus aureus [20]) was over 32 µM. The MIC (Enterococcus faecalis [21]) was over 32 µM, the MIC (Escherichia coli [22]) was 4 µM and the MIC (Escherichia coli [23]) was 8 µM. It also gave an MBC (Acinetobacter baumannii [24]) of 16 µM, an MBC (Staphylococcus aureus [25]) of over 32 µM and an MIC (Escherichia coli [26]) of 32 µM. It also gave an MIC (Staphylococcus aureus [27]) of over 32 µM, an MBC (Salmonella typhimurium [28]) of 16 µM and an MIC (Escherichia coli [29]) of 4 µM. The MBC (Salmonella typhimurium [30]) was 32 µM, the MIC (Pseudomonas aeruginosa [31]) was over 32 µM and the MIC (Acinetobacter baumannii [32]) was 4 µM. For the same substance, the MIC (Escherichia coli [33]) was 4 µM, the MIC (Escherichia coli [34]) was 16 µM and the MBC (Listeria monocytogenes [35]) was over 32 µM. For the same substance, the MIC (Escherichia coli [36]) was over 32 µM, the hemolysis at 1 h, 128 µM [37] was under 10% and the IC50 at 8 h [38] was over 64 µM. The MIC (Salmonella typhimurium [39]) was 8 µM, the MIC (Staphylococcus aureus [40]) was over 32 µM and the MBC [41] was over 32 µM.

Substance H-WKLWLKGGKLWLKGGKLWLKG-NH2 has an MBC (Escherichia coli [1]) of 4 µM, an MBC (Enterococcus faecalis [2]) of over 32 µM and an MBC (Bacillus cereus [3]) of over 32 µM. It also gave an HC10 (Erythrocyte) of 128 µM, an MIC (Bacillus cereus [4]) of over 32 µM and an MIC (Salmonella typhimurium [5]) of 4 µM. The MIC [6] was 1 µM, the MIC (Escherichia coli [7]) was 16 µM and the MBC [8] was 2 µM. The MBC (Staphylococcus aureus [9]) was over 32 µM, the IC50 at 8 h [10] was over 64 µM and the MIC (Escherichia coli [11]) was over 32 µM. For the same substance, the MIC [12] was 16 µM, the MIC (Listeria monocytogenes [13]) was over 32 µM and the MIC (Escherichia coli [14]) was 1 µM. The MBC (Staphylococcus aureus [15]) was 8 µM, the MIC (Escherichia coli [16]) was 4 µM and the MBC (Escherichia coli [17]) was 1 µM. It also gave an IC50 at 8 h [18] of 12.9 µM, an MBC (Pseudomonas aeruginosa [19]) of 16 µM and an MIC (Staphylococcus aureus [20]) of over 32 µM. It also gave an MIC (Enterococcus faecalis [21]) of over 32 µM, an MIC (Escherichia coli [22]) of 4 µM and an MIC (Escherichia coli [23]) of 8 µM. The MBC (Acinetobacter baumannii [24]) was 4 µM, the MBC (Staphylococcus aureus [25]) was over 32 µM and the MIC (Escherichia coli [26]) was over 32 µM. For the same substance, the MIC (Staphylococcus aureus [27]) was 8 µM, the MBC (Salmonella typhimurium [28]) was 8 µM and the MIC (Escherichia coli [29]) was 8 µM. For the same substance, the MBC (Salmonella typhimurium [30]) was 32 µM, the MIC (Pseudomonas aeruginosa [31]) was 8 µM and the MIC (Acinetobacter baumannii [32]) was 4 µM. The MIC (Escherichia coli [33]) was 4 µM, the MIC (Escherichia coli [34]) was over 32 µM and the MBC (Listeria monocytogenes [35]) was over 32 µM. The MIC (Escherichia coli [36]) was over 32 µM, the hemolysis at 1 h, 128 µM [37] was under 10% and the IC50 at 8 h [38] was over 64 µM. It also gave an MIC (Salmonella typhimurium [39]) of 4 µM, an MIC (Staphylococcus aureus [40]) of over 32 µM and an MBC [41] of over 32 µM.
